Assay results as given in patent US12595255B2, “Heteroaryl-substituted imidazole derivatives” (Hoffmann-La Roche Inc., priority 2021, dated 2026).

The compounds below were run on Acinetobacter baumannii ATCC17961 (assay: Antimicrobial susceptibility testing: 90% growth inhibitory concentration (IC90) determination). Settings: ATCC17961, 90% growth inhibitory concentration, Iso-Sensitest broth, OD 600 nm over 16 h, 35±2° C., read-out: ATCC 17961 IC90.
Assay type: cell-based
Procedure: Assay Procedures Antimicrobial Susceptibility Testing: 90% Growth Inhibitory Concentration (IC90) Determination
The in vitro antimicrobial activity of the compounds was determined according to the following procedure:
The assay used a 10-points Iso-Sensitest broth medium to measure quantitatively the in vitro activity of the compounds against Acinetobacter baumannii ATCC17961.
Stock compounds in DMSO were serially twofold diluted (e.g. range from 50 to 0.097 μM final concentration) in 384 wells microtiter plates and inoculated with 49 μl the bacterial suspension in Iso-Sensitest medium to have a final cell concentration of ˜5×10^5 CFU/ml in a final volume/well of 50 μl/well. Microtiter plates were incubated at 35±2° C.
Bacterial cell growth was determined with the measurement of optical density at λ=600 nm each 20 minutes over a time course of 16 h. Growth inhibition was calculated during the logarithmic growth of the bacterial cells with determination of the concentration inhibiting 50% (IC50) and 90% (IC90) of the growth.
Table 1 provides the 90% growth inhibitory concentrations (IC90) in micromoles per liter of the compounds of present invention obtained against the strain Acinetobacter baumannii ATCC17961.

| SMILES | IC90 |
| --- | --- |
| CN(C)c1nc(F)c(-c2cnc(C(=O)Nc3ccc(C(=O)NCCCCCCN)c(Cl)c3)n2C)cc1F [Example B1, N-[4-(6-aminohexylcarbamoyl)-3-chloro-phenyl]-5-[6-(dimethylamino)-2,5-difluoro-3-pyridyl]-1-methyl-imidazole-2-carboxamide] | 1.7 µM |
| CN(C)CC(=O)N1CCN(C(=O)c2ccc(NC(=O)c3ncc(-c4cc(F)c(N(C)C)nc4F)n3C)cc2Cl)CC1 [Example C1, N-[3-chloro-4-[4-[2-(dimethylamino)acetyl]piperazine-1-carbonyl]phenyl]-5-[6-(dimethylamino)-2,5-difluoro-3-pyridyl]-1-methyl-imidazole-2-carboxamide] | 0.53 µM |
| Cc1cc(NC(=O)c2ncc(-c3cc(F)c(N(C)C)nc3F)n2C)ccc1C(=O)N1CCN(C(=O)CN(C)C)CC1 [Example C2, N-[4-[4-[2-(dimethylamino)acetyl]piperazine-1-carbonyl]-3-methyl-phenyl]-5-[6-(dimethylamino)-2,5-difluoro-3-pyridyl]-1-methyl-imidazole-2-carboxamide] | 2.5 µM |
| CN(C)c1nc(F)c(-c2cnc(C(=O)Nc3ccc(C(=O)N4CCN(C(=O)C[N+](C)(C)C)CC4)c(Cl)c3)n2C)cc1F [Example D1, [2-[4-[2-chloro-4-[[5-[6-(dimethylamino)-2,5-difluoro-3-pyridyl]-1-methyl-imidazole-2-carbonyl]amino]benzoyl]piperazin-1-yl]-2-oxo-ethyl]-trimethyl-ammonium] | 0.65 µM |
| CN(C)c1nc(F)c(-c2cnc(C(=O)Nc3ccc(C(=O)NCCCCCC[N+](C)(C)C)c(Cl)c3)n2C)cc1F [Example D3, 6-[[2-chloro-4-[[5-[6-(dimethylamino)-2,5-difluoro-3-pyridyl]-1-methyl-imidazole-2-carbonyl]amino]benzoyl]amino]hexyl-trimethyl-ammonium] | 4.2 µM |
| CN(C)c1nc(F)c(-c2cnc(C(=O)Nc3ccc(C(=O)N4CCN(C(=O)C5CC[N+](C)(C)CC5)CC4)c(Cl)c3)n2C)cc1F [Example D4, N-[3-chloro-4-[4-(1,1-dimethylpiperidin-1-ium-4-carbonyl)piperazine-1-carbonyl]phenyl]-5-[6-(dimethylamino)-2,5-difluoro-3-pyridyl]-1-methyl-imidazole-2-carboxamide] | 0.6 µM |
| CN(C)c1nc(F)c(-c2cnc(C(=O)Nc3ccc(C(=O)N4CCN(C(=O)C5CC[N+](C)(C)C5)CC4)c(Cl)c3)n2C)cc1F (centres unmarked) [Example D5, N-[3-chloro-4-[4-(1,1-dimethylpyrrolidin-1-ium-3-carbonyl)piperazine-1-carbonyl]phenyl]-5-[6-(dimethylamino)-2,5-difluoro-3-pyridyl]-1-methyl-imidazole-2-carboxamide] | 0.59 µM |
| CN(C)c1nc(F)c(-c2cnc(C(=O)Nc3ccc(C(=O)N4CCN(C(=O)CC5CC[N+](C)(C)CC5)CC4)c(Cl)c3)n2C)cc1F [Example D7, N-[3-chloro-4-[4-[2-(1,1-dimethylpiperidin-1-ium-4-yl)acetyl]piperazine-1-carbonyl]phenyl]-5-[6-(dimethylamino)-2,5-difluoro-3-pyridyl]-1-methyl-imidazole-2-carboxamide] | 0.76 µM |
| CN(C)c1nc(F)c(-c2cnc(C(=O)Nc3ccc(C(=O)N4CCN(C(=O)C5CC(C[N+](C)(C)C)C5)CC4)c(Cl)c3)n2C)cc1F (centres unmarked) [Example D11, [3-[4-[2-chloro-4-[[5-[6-(dimethylamino)-2,5-difluoro-3-pyridyl]-1-methyl-imidazole-2-carbonyl]amino]benzoyl]piperazine-1-carbonyl]cyclobutyl]methyl-trimethyl-ammonium] | 1.5 µM |
| CN(C)c1nc(F)c(-c2cnc(C(=O)Nc3ccc(C(=O)NC4CCN(C(=O)[C@@H]5C[C@@H](O)C[N+]5(C)C)CC4)c(Cl)c3)n2C)cc1F [Example D12, N-[3-chloro-4-[[1-[(2S,4R)-4-hydroxy-1,1-dimethyl-pyrrolidin-1-ium-2-carbonyl]-4-piperidyl]carbamoyl]phenyl]-5-[6-(dimethylamino)-2,5-difluoro-3-pyridyl]-1-methyl-imidazole-2-carboxamide] | 2.8 µM |
| CN(C)c1nc(F)c(-c2cnc(C(=O)Nc3ccc(C(=O)N4CCC(C(=O)NC5CC[N+](C)(C)C5)CC4)c(Cl)c3)n2C)cc1F (centres unmarked) [Example D13, 1-[2-chloro-4-[[5-[6-(dimethylamino)-2,5-difluoro-3-pyridyl]-1-methyl-imidazole-2-carbonyl]amino]benzoyl]-N-(1,1-dimethylpyrrolidin-1-ium-3-yl)piperidine-4-carboxamide] | 0.73 µM |
| CNc1nc(F)c(-c2cnc(C(=O)Nc3ccc(C(=O)N4CCN(C(=O)C5CCNCC5)CC4)c(Cl)c3)n2C)cc1F [Example E1, N-[3-chloro-4-[4-(piperidine-4-carbonyl)piperazine-1-carbonyl]phenyl]-5-[2,5-difluoro-6-(methylamino)-3-pyridyl]-1-methyl-imidazole-2-carboxamide] | 1.2 µM |
| CN(C)c1nc(F)c(-c2cnc(C(=O)Nc3ccc(C(=O)N4CCN(C(=O)C5CCNCC5)CC4)c(Cl)c3)n2C)cc1F [Example E2, N-[3-chloro-4-[4-(piperidine-4-carbonyl)piperazine-1-carbonyl]phenyl]-5-[6-(dimethylamino)-2,5-difluoro-3-pyridyl]-1-methyl-imidazole-2-carboxamide] | 0.19 µM |
| CN(C)c1ccc(-c2cnc(C(=O)Nc3ccc(C(=O)N4CCN(C(=O)C5CCNCC5)CC4)c(Cl)c3)n2C)c(F)n1 [Example E3, N-[3-chloro-4-[4-(piperidine-4-carbonyl)piperazine-1-carbonyl]phenyl]-5-[6-(dimethylamino)-2-fluoro-3-pyridyl]-1-methyl-imidazole-2-carboxamide] | 0.47 µM |
| Cc1nc(N(C)C)ccc1-c1cnc(C(=O)Nc2ccc(C(=O)N3CCN(C(=O)C4CCNCC4)CC3)c(Cl)c2)n1C [Example E4, N-[3-chloro-4-[4-(piperidine-4-carbonyl)piperazine-1-carbonyl]phenyl]-5-[6-(dimethylamino)-2-methyl-3-pyridyl]-1-methyl-imidazole-2-carboxamide] | 1.4 µM |
| CN(C)c1ccc(-c2cnc(C(=O)Nc3ccc(C(=O)N4CCN(C(=O)C5CCNCC5)CC4)c(Cl)c3)n2C)c(Cl)n1 [Example E5, 5-[2-chloro-6-(dimethylamino)-3-pyridyl]-N-[3-chloro-4-[4-(piperidine-4-carbonyl)piperazine-1-carbonyl]phenyl]-1-methyl-imidazole-2-carboxamide] | 0.47 µM |
| CN(C)c1nc(F)c(-c2cnc(C(=O)Nc3ccc(C(=O)N4CCN(C(=O)C5(O)CCNCC5)CC4)c(Cl)c3)n2C)cc1F [Example F1, N-[3-chloro-4-[4-(4-hydroxypiperidine-4-carbonyl)piperazine-1-carbonyl]phenyl]-5-[6-(dimethylamino)-2,5-difluoro-3-pyridyl]-1-methyl-imidazole-2-carboxamide] | 0.27 µM |
| CN(C)c1nc(F)c(-c2cnc(C(=O)Nc3ccc(C(=O)N4CCN(C(=O)C[C@@H]5CCNC5)CC4)c(Cl)c3)n2C)cc1F [Example F2, N-[3-chloro-4-[4-[2-[(3S)-pyrrolidin-3-yl]acetyl]piperazine-1-carbonyl]phenyl]-5-[6-(dimethylamino)-2,5-difluoro-3-pyridyl]-1-methyl-imidazole-2-carboxamide] | 0.23 µM |
| CN(C)c1nc(F)c(-c2cnc(C(=O)Nc3ccc(C(=O)N4CCN(C(=O)CC5(O)CCNCC5)CC4)c(Cl)c3)n2C)cc1F [Example F3, N-[3-chloro-4-[4-[2-(4-hydroxy-4-piperidyl)acetyl]piperazine-1-carbonyl]phenyl]-5-[6-(dimethylamino)-2,5-difluoro-3-pyridyl]-1-methyl-imidazole-2-carboxamide] | 0.43 µM |
| CN(C)c1nc(F)c(-c2cnc(C(=O)Nc3ccc(C(=O)N4CCN(C(=O)C5CCNC5)CC4)c(Cl)c3)n2C)cc1F (centres unmarked) [Example F4, N-[3-chloro-4-[4-(pyrrolidine-3-carbonyl)piperazine-1-carbonyl]phenyl]-5-[6-(dimethylamino)-2,5-difluoro-3-pyridyl]-1-methyl-imidazole-2-carboxamide] | 0.74 µM |

Same assay, conditions: ATCC17961, 16 h, read-out: ATCC 17961 IC90 [μM]

| SMILES | IC90 |
| --- | --- |
| CN(C)c1nc(F)c(-c2cnc(C(=O)Nc3ccc(C(=O)NC4CC(NC(=O)C[N+](C)(C)C)C4)c(Cl)c3)n2C)cc1F (centres unmarked) [Example D8, [2-[[3-[[2-chloro-4-[[5-[6-(dimethylamino)-2,5-difluoro-3-pyridyl]-1-methyl-imidazole-2-carbonyl]amino]benzoyl]amino]cyclobutyl]amino]-2-oxo-ethyl]-trimethyl-ammonium] | 2.7 µM |
| CN(C)c1nc(F)c(-c2cnc(C(=O)Nc3ccc(C(=O)N4CCC(NC(=O)C[N+](C)(C)C)CC4)c(Cl)c3)n2C)cc1F [Example D9, [2-[[1-[2-chloro-4-[[5-[6-(dimethylamino)-2,5-difluoro-3-pyridyl]-1-methyl-imidazole-2-carbonyl]amino]benzoyl]-4-piperidyl]amino]-2-oxo-ethyl]-trimethyl-ammonium] | 1.6 µM |
| CN(C)c1nc(F)c(-c2cnc(C(=O)Nc3ccc(C(=O)NC4CCN(C(=O)CCOCC[N+](C)(C)C)CC4)c(Cl)c3)n2C)cc1F [Example D10, 2-[3-[4-[[2-chloro-4-[[5-[6-(dimethylamino)-2,5-difluoro-3-pyridyl]-1-methyl-imidazole-2-carbonyl]amino]benzoyl]amino]-1-piperidyl]-3-oxo-propoxy]ethyl-trimethyl-ammonium] | 5.6 µM |
